According to patent publication US20250353809A1, “NITROGEN-CONTAINING CHAIN COMPOUND, PREPARATION METHOD, COMPOSITION CONTAINING SAID COMPOUND, AND USE THEREOF” (SHANGHAI RNACURE BIOPHARMA CO., LTD., priority 2022, published 2025):

Tests used:
[1] = Particle size and PDI of LNP preparation by dynamic light scattering (Malvern Zetasizer Ultra); assay type: physicochemical
[2] = Encapsulation efficiency of LNP (Quant-it Ribogreen RNA quantitative assay kit); assay type: physicochemical
female Balb/C mice [3] = assay: In-vivo bioluminescence (overall luminescence intensity, AUC) after tail vein injection of Fluc mRNA LNP; details: 5 μg/mouse, liver site, Table 3 LNP
female Balb/C mice [4] = assay: In-vivo bioluminescence at lower limb administration site after intramuscular injection of Fluc mRNA LNP; details: 5 μg/mouse, Table 3 LNP
Method: In this example, LQ104-1 to LQ104-8 (encapsulating Fluc mRNA) from Example 1 were injected via tail vein into female Balb/C mice (Viton Lihua) aged 6 to 8 weeks at a dose of 5 μg/mouse (n=3, i.e. 3 mice were used for injection and testing in each group, and the data results presented were the mean measurements of each group). […] potassium salt was intraperitoneally injected at specific time points after administration (in this example, 6th hour, 24th hour, and 48th hour), and then the luminescence was detected by an IVIS Spectrum small animal living imager instrument (manufacturer: PerkinElmer). The overall luminescence intensity of live expression sites (such as the liver) in mice was counted. […] The overall luminescence intensity was the luminescence intensity data, measured by bioluminescence imaging, of the luminescent site obtained 6 to 15 minutes (min) after intraperitoneal injection of […] potassium salt. The overall luminescence intensity of the in vivo expression area was counted by using Living Image software (manufacturer: PerkinElmer), furthermore, an area under the curve (AUC, unit: p/s*hour) was calculated by using GraphPad software, and the AUC in each example of the present application is the area under the curve of a line connecting measurement points of the overall luminescence intensity from the 4th or 6th hour after drug administration (using the experimental method of the present application, peak values are the same from 3-6 hours after drug administration) to the 48th hour after drug administration. Test results were shown in FIG. 3 and FIG. 4A, as well as Table 2.
Furthermore, referring to the mouse in-vivo experimental method of Example 3, each group of LNP preparations in this example was injected into female Balb/C mice aged 6 to 8 weeks through tail vein injection or intramuscular injection of the lower limbs at a dose of 5 μg/mouse. The overall luminescence intensity of the liver or lower limb administration site was counted, and the test results were shown in FIG. 5A to FIG. 5D and Table 4A to Table 4D). […]

[5] = Surface potential of LNP preparation (Malvern Zetasizer Ultra); assay type: physicochemical; details: Table 3; LNP 40:11:47.4:1.6, N/P 8:1
Method: (§1) In this example, the ionizable lipids prepared from Preparation Example 3 to Preparation Example 17 were selected. Following the same method as in Example 1, an LNP preparation (encapsulating Fluc mRNA) was prepared according to a molar ratio and a nitrogen-to-phosphorus ratio shown in Table 3. Malvern Zetasizer Ultra was used to measure a particle size, a PDI, and a surface potential of each LNP preparation; a Quant-it Ribogreen RNA quantification assay kit (manufacturer: ThermoFisher Scientific, item number: R11490) was used to measure encapsulation efficiency of LNP; and a dye binding test of 6-(p-Toluidino)-2-naphthalene sulfonic acid sodium salt (TNS, purchased from Nanjing Xize Pharmaceutical Technology Co., Ltd., item number: XZ0743) was used to measure pKa of the LNP.

[6] = pKa of LNP by TNS dye binding test; assay type: physicochemical; details: Table 3, pKa of the LNP, 40:11:47.4:1.6, N/P 8:1
Method: as §1

female Balb/C mice [7] = assay: Total Spike antibody titer in serum (ELISA) after intramuscular injection of Spike mRNA LNP; assay type: in vivo; details: 2 μg/mouse, second injection on 21st day, serum 7th day after second administration, n=8, compared with PBS
[8] = Table 3, LNP 40:11:47.4:1.6, N/P 8:1
[9] = Table 3, LNP lipid:DSPC:cholesterol:DMG-PEG = 40:11:47.4:1.6, nitrogen-to-phosphorus ratio 8:1, Fluc mRNA
[10] = Table 1, Example 1 LNP preparations

| SMILES | PDI [1, 8] | Particle size (nm) [1, 9] [nm] | Encapsulation efficiency (%) [2, 8] [%] | Surface potential (mV) [5] [mV] | pKa [6] | AUC (p/s*hour) (female Balb/C mice [3]; Table 4A (FIG. 5A)) | AUC (p/s*hour) (female Balb/C mice [4]; Table 4C (FIG. 5C)) | AUC (p/s*hour) (female Balb/C mice [3]; Table 4B (FIG. 5B)) | AUC (p/s*hour) (female Balb/C mice [4]; Table 4D (FIG. 5D)) | PDI [1, 10] | Particle size (nm) ([1]; Table 1, Example 1 LNP preparations (ionizable lipid:DSPC:cholesterol:DMG-PEG)) | Encapsulation efficiency (%) [2, 10] [%] | total Spike protein antibody titer (female Balb/C mice [7]) |
| --- | --- | --- | --- | --- | --- | --- | --- | --- | --- | --- | --- | --- | --- |
| CCCCCCCC(CCCCCCC)OC(=O)CCCCCN(CCO)CCN(CCO)CCCCCC(=O)OC(CCCCCCC)CCCCCCC [LQ104-E15b-1] | 0.059 | 71.08 | 98.1 | −4.22 | 6.754 | 2.26E+10 | 5.58E+09 | – | – | – | – | – | – |
| CCCCCCCCC(CCCCCCCC)OC(=O)CCCCN(CCO)CCN(CCO)CCCCC(=O)OC(CCCCCCCC)CCCCCCCC [LQ104-E15b-2] | 0.059 | 56.47 | 96.8 | −6.81 | 6.470 | – | – | – | – | – | – | – | – |
| CCCCCCCCCC(CCCCCCCCC)OC(=O)CCCN(CCO)CCN(CCO)CCCC(=O)OC(CCCCCCCCC)CCCCCCCCC [LQ104-E15b-3] | 0.083 | 52.80 | 96.0 | −10.70 | 6.161 | – | – | – | – | – | – | – | – |
| CCCCCCCC(CCCCCCC)OC(=O)CCCCCCN(CCO)CCN(CCO)CCCCCCC(=O)OC(CCCCCCC)CCCCCCC [LQ104-E16b-1] | 0.044 | 84.84 | 97.2 | −3.35 | 7.109 | 2.74E+10 | 2.30E+09 | – | – | – | – | – | – |
| CCCCCCCCC(CCCCCCCC)OC(=O)CCCCCN(CCO)CCN(CCO)CCCCCC(=O)OC(CCCCCCCC)CCCCCCCC [LQ104-E16b-2] | 0.098 | 75.44 | 97.9 | −4.38 | 6.761 | 8.98E+10 | 3.50E+09 | – | – | – | – | – | – |
| CCCCCCCCC(CCCCCC)C(=O)OCCCCCN(CCO)CCN(CCO)CCCCCOC(=O)C(CCCCCC)CCCCCCCC (stereo not drawn) [LQ104-E16b-3R] | 0.088 | 89.68 | 96.8 | −4.59 | 6.802 | 1.47E+10 | 2.19E+09 | – | – | – | – | – | – |
| CCCCCCCCC(CCCCCC)OC(=O)CCCCCN(CCO)CCN(CCO)CCCCCC(=O)OC(CCCCCC)CCCCCCCC (stereo not drawn) [LQ104-E16b-3] | 0.091 | 78.35 | 97.6 | −5.94 | 6.773 | 1.95E+10 | 2.10E+09 | – | – | – | – | – | – |
| CCCCCCCC(CCCCCCC)OC(=O)CCCCCCCN(CCO)CCN(CCO)CCCCCCCC(=O)OC(CCCCCCC)CCCCCCC [LQ104-E17b-1] | 0.082 | 85.67 | 96.9 | −1.066 | 7.19 | – | – | 3.16E+10 | 2.66E+09 | – | – | – | – |
| CCCCCCCCCCCOC(=O)CCCCCN(CCCCCCCC(=O)OC(CCCCCCCC)CCCCCCCC)CCOC(=O)CC(=O)OCCN(CCCCCCCC(=O)OC(CCCCCCCC)CCCCCCCC)CCCCCC(=O)OCCCCCCCCCCC [LQ107] | – | – | – | – | – | – | – | – | – | 0.025 | 83.56 | 83.7 | did not increase |

Continued, in another order:

| PDI [1, 8] | Particle size (nm) [1, 9] [nm] | Encapsulation efficiency (%) [2, 8] [%] | Surface potential (mV) [5] [mV] | pKa [6] | SMILES | AUC (p/s*hour) (female Balb/C mice [3]; Table 4A (FIG. 5A)) | AUC (p/s*hour) (female Balb/C mice [4]; Table 4C (FIG. 5C)) | AUC (p/s*hour) (female Balb/C mice [3]; Table 4B (FIG. 5B)) | AUC (p/s*hour) (female Balb/C mice [4]; Table 4D (FIG. 5D)) | PDI [1, 10] | Particle size (nm) ([1]; Table 1, Example 1 LNP preparations (ionizable lipid:DSPC:cholesterol:DMG-PEG)) | Encapsulation efficiency (%) [2, 10] [%] | total Spike protein antibody titer (female Balb/C mice [7]) |
| --- | --- | --- | --- | --- | --- | --- | --- | --- | --- | --- | --- | --- | --- |
| 0.045 | 74.14 | 97.4 | −1.852 | 6.852 | CCCCCCCCC(CCCCCCCC)OC(=O)CCCCCCN(CCO)CCN(CCO)CCCCCCC(=O)OC(CCCCCCCC)CCCCCCCC [LQ104-E17b-2] | – | – | 5.58E+10 | 2.49E+09 | – | – | – | – |
| 0.087 | 77.34 | 97.4 | −2.203 | 7.153 | CCCCCCCCC(CCCCCC)C(=O)OCCCCCCN(CCO)CCN(CCO)CCCCCCOC(=O)C(CCCCCC)CCCCCCCC (stereo not drawn) [LQ104-E17b-3R] | – | – | 6.33E+09 | 1.47E+09 | – | – | – | – |
| 0.058 | 85.57 | 97.4 | −2.788 | 7.15 | CCCCCCCCC(CCCCCC)OC(=O)CCCCCCN(CCO)CCN(CCO)CCCCCCC(=O)OC(CCCCCC)CCCCCCCC (stereo not drawn) [LQ104-E17b-3] | – | – | 9.91E+10 | 3.82E+09 | – | – | – | – |
| 0.061 | 72.30 | 98.0 | −3.406 | 6.469 | CCCCCCCCCC(CCCCCCC)OC(=O)CCCCCN(CCO)CCN(CCO)CCCCCC(=O)OC(CCCCCCC)CCCCCCCCC (stereo not drawn) [LQ104-E17b-4] | – | – | 7.68E+10 | 2.86E+09 | – | – | – | – |
| 0.081 | 80.10 | 97.4 | −2.013 | 7.033 | CCCCCCCCC(CCCCCC)C(=O)OCCCCCCCN(CCO)CCN(CCO)CCCCCCCOC(=O)C(CCCCCC)CCCCCCCC (stereo not drawn) [LQ104-E18b-2R] | – | – | 1.01E+10 | 1.73E+09 | – | – | – | – |
| 0.084 | 84.46 | 97.5 | −1.109 | 7.262 | CCCCCCCCC(CCCCCC)OC(=O)CCCCCCCN(CCO)CCN(CCO)CCCCCCCC(=O)OC(CCCCCC)CCCCCCCC (stereo not drawn) [LQ104-E18b-2] | – | – | 5.32E+10 | 3.06E+09 | – | – | – | – |
| 0.063 | 90.39 | 97.4 | −2.466 | 7.039 | CCCCCCCCCC(CCCCCCC)OC(=O)CCCCCCN(CCO)CCN(CCO)CCCCCCC(=O)OC(CCCCCCC)CCCCCCCCC (stereo not drawn) [LQ104-E18b-3] | – | – | 1.06E+11 | 4.80E+09 | – | – | – | – |
